Measurements published in patent US7888386B2, “3-(phenoxyphenylmethyl)pyrrolidine compounds” (Theravance, Inc., priority 2008, dated 2011).
Where two headings read alike, the source gives them in different places.

Tests used:
hNET = target: T1, hNET (Homo sapiens, UniProt P23975); experiment: hNET binding assay (Assay 1); conditions: read-out: NET pKi (converted)
T1 construct: expressed in transfected cells; host or cells: HEK-293 derived cell line, stably transfected; membrane preparation
Procedure: (§1) Membrane radioligand binding assays were used to measure competitive inhibition of labeled ligand (^3H-citalopram or ^3H-nisoxetine or ^3H-WIN35428) binding to membranes prepared from cells expressing the respective human recombinant transporter (hSERT or hNET or hDAT) in order to determine the pKi values of test compounds at the transporters.
(§2) Recombinant human embryonic kidney (HEK-293) derived cell lines stably transfected with hSERT or hNET, respectively, were grown in DMEM medium supplemented with 10% dialyzed FBS (for hSERT) or FBS (for hNET), 100 μg/ml penicillin, 100 μg/ml streptomycin, 2 mM L-glutamine and 250 μg/ml of the aminoglycoside antibiotic G418, in a 5% CO2 humidified incubator at 37° C. When cultures reached 80% confluence, the cells were washed thoroughly in PBS (without Ca^2+ and Mg^2+) and lifted with 5 mM EDTA in PBS. Cells were pelleted by centrifugation, resuspended in lysis buffer (10 mM Tris-HCl, pH 7.5 containing 1 mM EDTA), homogenized, pelleted by centrifugation, then resuspended in 50 mM Tris-HCl, pH 7.5 and 10% sucrose at 4° C. Protein concentration of the membrane suspension was determined using a Bio-Rad Bradford Protein Assay kit. Membranes were snap frozen and stored at −80° C. Chinese hamster ovary membranes expressing hDAT (CHO-DAT) were purchased from PerkinElmer and stored at −80° C.
(§3) Stock solutions (10 mM in DMSO) of test compound were prepared and serial dilutions made using Dilution Buffer (50 mM Tris-HCl, 120 mM NaCl, 5 mM KCl, pH 7.4, 0.1% BSA, 400 μM ascorbic acid).
(§4) Following a 60 minute incubation at 22° C. (or a period sufficient to reach equilibrium), the membranes were harvested by rapid filtration over a 96-well UniFilter GF/B plate, pretreated with 0.3% polyethyleneimine, and washed 6 times with 300 μl wash buffer (50 mM Tris-HCl, 0.9% NaCl, pH 7.5 at 4° C.). Plates were dried overnight at room temperature, ˜45 μl of MicroScint™-20 (Perkin Elmer) added and bound radioactivity quantitated via liquid scintillation spectroscopy. Competitive inhibition curves and saturation isotherms were analyzed using GraphPad Prism Software package (GraphPad Software, Inc., San Diego, Calif.). IC50 values were generated from concentration response curves using the Sigmoidal Dose Response (variable slope) algorithm in Prism GraphPad.

hSERT = target: T2, hSERT (Homo sapiens, UniProt P31645); experiment: hSERT binding assay (Assay 1)
T2 construct: expressed in transfected cells; host or cells: HEK-293 derived cell line, stably transfected; membrane preparation
Procedure: as §1, §2, §3, §4

[1] = ratio of SERT Ki to NET Ki from binding assays
[2] = membranes of HEK-293 cells expressing hNET, 1.0 nM 3H-nisoxetine
[3] = ratio of binding Ki at hSERT to Ki at hNET, rounded off to the nearest tenth
[4] = ratio of SERT Ki to NET Ki (binding)
[5] = hNET binding, the tables list only compounds with NET pKi≧8
[6] = ratio of binding Ki at SERT to Ki at NET, the tables list only compounds with a ratio in the range 0.1-100

T1 sequence (P23975 whole entry): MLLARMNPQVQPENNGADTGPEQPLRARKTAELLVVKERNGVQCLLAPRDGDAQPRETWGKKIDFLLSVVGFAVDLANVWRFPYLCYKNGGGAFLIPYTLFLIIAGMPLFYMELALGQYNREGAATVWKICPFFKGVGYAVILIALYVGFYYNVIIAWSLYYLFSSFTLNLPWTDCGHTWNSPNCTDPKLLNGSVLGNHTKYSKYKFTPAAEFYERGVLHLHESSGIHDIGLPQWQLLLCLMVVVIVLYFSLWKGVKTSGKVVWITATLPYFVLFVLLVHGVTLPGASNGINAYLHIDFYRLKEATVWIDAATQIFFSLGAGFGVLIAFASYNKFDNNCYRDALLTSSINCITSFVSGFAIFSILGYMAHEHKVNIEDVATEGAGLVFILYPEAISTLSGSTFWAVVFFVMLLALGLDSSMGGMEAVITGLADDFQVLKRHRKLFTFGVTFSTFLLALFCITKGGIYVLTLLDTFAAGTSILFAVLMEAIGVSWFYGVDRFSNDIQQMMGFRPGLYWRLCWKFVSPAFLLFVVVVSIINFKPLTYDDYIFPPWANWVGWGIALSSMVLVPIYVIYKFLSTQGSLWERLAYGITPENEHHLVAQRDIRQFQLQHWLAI
T2 sequence (P31645 whole entry): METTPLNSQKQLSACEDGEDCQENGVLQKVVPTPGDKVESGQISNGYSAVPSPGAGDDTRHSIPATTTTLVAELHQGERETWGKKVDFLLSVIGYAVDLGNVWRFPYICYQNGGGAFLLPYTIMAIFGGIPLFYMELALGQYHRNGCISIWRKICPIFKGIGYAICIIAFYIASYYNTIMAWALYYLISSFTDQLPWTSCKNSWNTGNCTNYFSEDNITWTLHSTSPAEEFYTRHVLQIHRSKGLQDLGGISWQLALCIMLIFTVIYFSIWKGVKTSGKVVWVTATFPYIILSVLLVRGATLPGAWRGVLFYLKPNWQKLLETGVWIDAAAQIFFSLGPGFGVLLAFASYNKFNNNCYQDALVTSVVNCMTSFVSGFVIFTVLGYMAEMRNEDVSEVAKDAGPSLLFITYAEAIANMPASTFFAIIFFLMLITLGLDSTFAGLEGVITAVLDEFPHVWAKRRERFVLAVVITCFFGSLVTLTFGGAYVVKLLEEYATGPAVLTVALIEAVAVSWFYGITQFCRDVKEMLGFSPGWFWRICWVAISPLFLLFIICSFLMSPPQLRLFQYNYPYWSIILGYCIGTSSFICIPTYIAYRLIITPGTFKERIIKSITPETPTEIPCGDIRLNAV

Compound	Ki (hNET; [2]) [nM]	SERT Ki/NET Ki (hSERT; [3])	Ki (hNET; hNET binding) [nM]	SERT Ki/NET Ki (hSERT; [4])	also measured
Fc1ccc(F)c(O[C@@H](c2ccccc2)[C@H]2CCNC2)c1 [29-2]					Ki (hNET; hNET binding assay): 1.26 nM; SERT Ki/NET Ki (hSERT; [1]): 32
COC(=O)c1cc(Cl)ccc1OC(c1ccccc1)C1CCNC1 (stereo not shown) [27-34]					Ki (hNET; hNET binding assay): 2.51 nM; SERT Ki/NET Ki (hSERT; [1]): 4
CCC(=O)c1ccccc1OC(c1ccccc1)C1CCNC1 (stereo not shown) [Compound 19-26]	3.98	50			
Cc1ccc(Cl)c(OC(c2cccc(C#N)c2)C2CCNC2)c1Cl (stereo not shown) [41-14]			0.631	7.9	
Cc1ccc(Cl)c(O[C@H](c2cccc(CO)c2)[C@H]2CCNC2)c1Cl [41-17]			1	5	
Fc1cc(Cl)c(O[C@@H](c2ccccc2)[C@H]2CCNC2)c(Cl)c1 [44-21]					Ki (hNET; [5]): 6.31 nM; SERT Ki/NET Ki (hSERT; [6]): 0.5
Fc1cc(Cl)cc(OC(c2ccccc2)C2CCNC2)c1 (stereo not shown) [34-5]					Ki (hNET; hNET binding assay): 3.16 nM; SERT Ki/NET Ki (hSERT; [1]): 0.1
CSc1ccccc1OC(c1ccccc1)C1CCNC1 (stereo not shown) [Compound 19-30]	0.398	63			
Fc1cc(F)c(F)c(O[C@H](c2ccccc2)[C@@H]2CCNC2)c1 [38-1]			5.01	0.2	
Fc1cc(F)cc(C(Oc2c(F)ccc(Cl)c2F)C2CCNC2)c1 (stereo not shown) [41-5]			0.2	50	
Clc1cc(Cl)cc(OC(c2ccccc2Cl)C2CCNC2)c1 (stereo not shown) [35-3]			3.16	0.1	
Fc1cc(F)cc([C@@H](Oc2cc(Cl)cc(Cl)c2)[C@@H]2CCNC2)c1 [35-17]			1.58	0.2	
Brc1ccccc1OC(c1ccccc1)C1CCNC1 (stereo not shown) [Compound 19-7]	1	1			
COc1ccccc1OC(c1cccc(CO)c1)C1CCNC1 (stereo not shown) [Compound 20-26]	3.98	10			
Fc1ccc(Cl)c(OC(c2ccccc2)C2CCNC2)c1 (stereo not shown) [29-12]					Ki (hNET; hNET binding assay): 1.58 nM; SERT Ki/NET Ki (hSERT; [1]): 2
CC(C)c1ccccc1OC(c1cccc(Cl)c1)C1CCNC1 (stereo not shown) [Compound 20-12]	5.01	7.9			
COc1ccccc1OC(c1ccc(Cl)cc1)C1CCNC1 (stereo not shown) [Compound 20-21]	2	4			
Cc1cccc(OC(c2ccccc2)C2CCNC2)c1C (stereo not shown) [Compound 25-23]	1.58	0.1			
Cc1ccc(Cl)c(O[C@H](c2ccccc2)[C@@H]2CCNC2)c1F [40-28]			0.794	0.4	
Fc1cc(F)cc(C(Oc2ccc(Cl)cc2F)C2CCNC2)c1 (stereo not shown) [28-9]					Ki (hNET; hNET binding assay): 3.16 nM; SERT Ki/NET Ki (hSERT; [1]): 0.3
Cc1ccc(Cl)c(OC(c2ccc(C#N)cc2)C2CCNC2)c1Cl (stereo not shown) [41-15]			1	0.6	

Compound	Ki (hNET; [2]) [nM]	SERT Ki/NET Ki (hSERT; [3])	Ki (hNET; hNET binding) [nM]	SERT Ki/NET Ki (hSERT; [4])	also measured
Fc1cc(Cl)cc(C(Oc2cc(Cl)cc(Cl)c2)C2CCNC2)c1 (stereo not shown) [35-18]			5.01	0.5	
Fc1c(Cl)cccc1O[C@H](c1ccccc1)[C@@H]1CCNC1 [Compound 25-5]	1.58	0.1			
Clc1cccc(Oc2cccc(OC(c3ccccc3)C3CCNC3)c2)c1 (stereo not shown) [Compound 21-14]	5.01	0.8			
Fc1cc(F)c(Cl)c(OC(c2ccccc2)C2CCNC2)c1F (stereo not shown) [47-6]					Ki (hNET; [5]): 0.398 nM; SERT Ki/NET Ki (hSERT; [6]): 6.3
c1ccc(Cc2ccccc2OC(c2ccccc2)C2CCNC2)cc1 (stereo not shown) [Compound 19-21]	5.01	5			
Fc1cc(F)cc(C(Oc2cc(Cl)ccc2F)C2CCNC2)c1 (stereo not shown) [30-2]					Ki (hNET; hNET binding assay): 0.794 nM; SERT Ki/NET Ki (hSERT; [1]): 25
Fc1cc(F)cc([C@@H](Oc2c(F)ccc(F)c2Cl)[C@@H]2CCNC2)c1 [41-31]			0.251	0.6	
Fc1cc(F)cc([C@H](Oc2c(F)ccc(F)c2F)[C@H]2CCNC2)c1 [41-1]			0.251	100	
COc1cc(F)ccc1OC(c1cc(F)cc(F)c1)C1CCNC1 (stereo not shown) [28-17]					Ki (hNET; hNET binding assay): 0.398 nM; SERT Ki/NET Ki (hSERT; [1]): 25
Fc1cc(F)cc([C@H](Oc2c(F)cc(F)cc2F)[C@H]2CCNC2)c1 [45-1]					Ki (hNET; [5]): 3.98 nM; SERT Ki/NET Ki (hSERT; [6]): 7.9
COc1ccc(F)c(F)c1OC(c1cc(F)cc(F)c1)C1CCNC1 (stereo not shown) [41-4]			1	1	
Ic1cccc(OC(c2ccccc2)C2CCNC2)c1 (stereo not shown) [Compound 21-6]	3.98	0.2			
COc1ccccc1OC(c1cc(F)cc(Cl)c1)C1CCNC1 (stereo not shown) [Compound 20-35]	0.631	16			
Fc1cc(F)cc(C(Oc2cc(F)c(F)cc2F)C2CCNC2)c1 (stereo not shown) [43-1]			2	32	
Fc1cc(F)cc(C(Oc2cc(Cl)cc(Cl)c2)C2CCNC2)c1 (stereo not shown) [35-14]			2	0.3	
COc1ccc(F)cc1OC(c1cc(F)cc(F)c1)C1CCNC1 (stereo not shown) [30-6]					Ki (hNET; hNET binding assay): 5.01 nM; SERT Ki/NET Ki (hSERT; [1]): 0.4
Cc1ccc(F)c(O[C@@H](c2ccccc2)[C@@H]2CCNC2)c1Cl [40-30]			5.01	0.1	
Fc1ccc(Cl)cc1O[C@H](c1ccccc1)[C@@H]1CCNC1 [29-6]					Ki (hNET; hNET binding assay): 3.98 nM; SERT Ki/NET Ki (hSERT; [1]): 0.3
Cc1ccc(OC(c2ccccc2)C2CCNC2)cc1F (stereo not shown) [33-2]					Ki (hNET; hNET binding assay): 5.01 nM; SERT Ki/NET Ki (hSERT; [1]): 0.1
Clc1cccc(C(Oc2cccc(Cl)c2Cl)C2CCNC2)c1 (stereo not shown) [Compound 26-3]					Ki (hNET; hNET binding assay): 5.01 nM; SERT Ki/NET Ki (hSERT; [1]): 0.1
Cc1cc(F)cc([C@@H](Oc2c(Cl)ccc(C)c2Cl)[C@@H]2CCNC2)c1 (racemic) [41-23]			1.58	0.5	

Compound	Ki (hNET; [2]) [nM]	SERT Ki/NET Ki (hSERT; [3])	Ki (hNET; hNET binding) [nM]	SERT Ki/NET Ki (hSERT; [4])	also measured
c1ccc(Oc2cccc(OC(c3ccccc3)C3CCNC3)c2)cc1 (stereo not shown) [Compound 21-13]	1.26	1.3			
Fc1ccc(Cl)cc1O[C@@H](c1ccccc1)[C@H]1CCNC1 [29-5]					Ki (hNET; hNET binding assay): 0.501 nM; SERT Ki/NET Ki (hSERT; [1]): 16
Fc1cc(F)cc(C(Oc2c(F)ccc(Cl)c2F)C2CCNC2)c1 (stereo not shown) [41-6]			0.501	1	
Fc1ccccc1C(Oc1cccc(Cl)c1Cl)C1CCNC1 (stereo not shown) [Compound 26-1]					Ki (hNET; hNET binding assay): 1.58 nM; SERT Ki/NET Ki (hSERT; [1]): 0.1
Fc1ccc(Cl)c(Cl)c1OC(c1ccccc1)C1CCNC1 (stereo not shown) [40-13]			0.2	0.3	
Cc1ccc(F)cc1OC(c1ccccc1)C1CCNC1 (stereo not shown) [29-16]					Ki (hNET; hNET binding assay): 1.58 nM; SERT Ki/NET Ki (hSERT; [1]): 7.9
Fc1ccc(Cl)c(F)c1O[C@@H](c1ccccc1)[C@H]1CCNC1 [40-16]			0.158	10	
Fc1cc(F)cc([C@@H](Oc2c(Cl)c(F)cc(F)c2Cl)[C@@H]2CCNC2)c1 [48-3]					Ki (hNET; [5]): 0.251 nM; SERT Ki/NET Ki (hSERT; [6]): 2
COc1ccccc1O[C@H](c1cc(F)cc(F)c1)[C@@H]1CCNC1 [Compound 20-34]	3.98	1			
N#Cc1cccc([C@H](Oc2ccc(Cl)cc2F)[C@H]2CCNC2)c1 [28-3]					Ki (hNET; hNET binding assay): 6.31 nM; SERT Ki/NET Ki (hSERT; [1]): 0.5
COc1ccccc1OC(c1ccccc1Cl)C1CCNC1 (stereo not shown) [Compound 20-17]	1	13			
Fc1ccc(C(Oc2cc(Cl)cc(Cl)c2)C2CCNC2)cc1 (stereo not shown) [35-9]			7.94	0.1	
COc1c(F)cccc1O[C@@H](c1ccccc1)[C@H]1CCNC1 [Compound 25-26]	1.26	13			
COc1ccccc1OC(c1ccccc1Cl)C1CCNC1 (stereo not shown) [Compound 20-16]	1.26	4			
Cc1cccc(OC(c2ccccc2)C2CCNC2)c1 (stereo not shown) [Compound 21-7]	3.98	0.5			
Cc1ccc(F)c(OC(c2cc(F)cc(F)c2)C2CCNC2)c1F (stereo not shown) [41-7]			1	1.3	
COC(=O)c1c(F)c(F)c(F)c(F)c1OC(c1ccccc1)C1CCNC1 (stereo not shown) [49-8]					Ki (hNET; [5]): 3.16 nM; SERT Ki/NET Ki (hSERT; [6]): 0.4
Clc1c(Oc2ccccc2)cccc1OC(c1ccccc1)C1CCNC1 (stereo not shown) [Compound 25-15]	2.51	0.2			
COc1cccc(F)c1O[C@@H](c1ccccc1)[C@H]1CCNC1 [31-16]					Ki (hNET; hNET binding assay): 0.2 nM; SERT Ki/NET Ki (hSERT; [1]): 79
FC(F)(F)c1ccccc1OC(c1ccccc1)C1CCNC1 (stereo not shown) [Compound 19-13]	2.51	7.9			
